Data taken from US7265111B2, “Adenosine analogues and their use as pharmaceutical agents” (Sanofi-Aventis Deutschland GmbH, priority 2002, dated 2007).

Key:
Adenosine A1 receptor = molecular target: T1, Adenosine A1 receptor (Homo sapiens, UniProt P30542); test: FLIPR intracellular Ca2+ functional assay, recombinant CHO cells (A1/Gα6qi4myr); assay type: cell-based; conditions: read-out: EC50 values (agonist activity at adenosine receptors) A1
T1 construct: expressed in transfected cells; host or cells: CHO (Chinese hamster ovary) cells, stably double-transfected
T1 sequence (P30542 1-326): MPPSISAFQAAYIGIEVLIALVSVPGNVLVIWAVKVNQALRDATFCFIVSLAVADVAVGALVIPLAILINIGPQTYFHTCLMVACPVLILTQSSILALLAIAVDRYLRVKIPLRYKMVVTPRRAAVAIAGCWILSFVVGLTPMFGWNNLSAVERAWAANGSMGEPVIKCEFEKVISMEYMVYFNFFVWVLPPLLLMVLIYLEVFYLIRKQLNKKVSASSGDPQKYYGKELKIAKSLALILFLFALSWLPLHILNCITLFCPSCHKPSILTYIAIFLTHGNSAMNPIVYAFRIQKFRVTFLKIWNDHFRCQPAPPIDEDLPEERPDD
Procedure: (§1) In Vitro Functional Assays with Recombinant Cell Lines:
(§2) Functional assays were performed by detection of agonist-induced changes in the intracellular concentration of Ca^2+ in recombinant cell lines expressing adenosine receptor subtypes using the FLIPR™ (fluorescence imaging plate reader, Molecular Devices) technology. To allow optimal signalling through Ca^2+, chinese hamster ovary (CHO) cells were stably double-transfected with cDNAs to achieve expression of suitable combinations of adenosine receptor subtypes (A1, A2a, A2b or A3) with either G-protein Gα16 or hybrid protein Gα6qi4myr (German Patent Application no. 100333532.2). Optimal signals were achieved using combinations as follows:
(§3) For assays, recombinant cells were seeded in 96-well dishes (50000 cells/well) and grown overnight. Medium was then removed and cells incubated for 1 hour in buffer containing the dye Fluo-4. After incubation with dye, cells were washed, test compound added and changes in intracellular Ca^2+ concentration measured by FLIPR. Measured values were expressed as % change relative to controls (0%: no test compound added; 100%: 1 μM Adenosine added) and used for calculation of dose-response curves and subsequent determination of EC50 values.

Adenosine A2a receptor = molecular target: T2, Adenosine A2a receptor (Homo sapiens, UniProt P29274); test: FLIPR intracellular Ca2+ functional assay, recombinant CHO cells (A2a/Gα16); assay type: cell-based
T2 construct: expressed in transfected cells; host or cells: CHO (Chinese hamster ovary) cells, stably double-transfected
Procedure: as §1, §2, §3

Adenosine A2b receptor = molecular target: T3, Adenosine A2b receptor (Homo sapiens, UniProt P29275); test: FLIPR intracellular Ca2+ functional assay, recombinant CHO cells (A2b/Gα16); assay type: cell-based
T3 construct: expressed in transfected cells; host or cells: CHO (Chinese hamster ovary) cells, stably double-transfected
T3 sequence (P29275 1-332): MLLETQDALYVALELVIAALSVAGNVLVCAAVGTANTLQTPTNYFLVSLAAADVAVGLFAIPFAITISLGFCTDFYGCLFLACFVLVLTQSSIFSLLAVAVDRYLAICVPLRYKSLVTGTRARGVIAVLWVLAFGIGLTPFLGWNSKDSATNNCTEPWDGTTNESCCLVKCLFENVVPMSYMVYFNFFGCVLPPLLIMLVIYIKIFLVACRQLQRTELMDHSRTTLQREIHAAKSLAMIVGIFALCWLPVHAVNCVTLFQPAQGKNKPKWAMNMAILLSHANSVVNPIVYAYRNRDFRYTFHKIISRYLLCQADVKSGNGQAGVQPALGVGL
Procedure: as §1, §2, §3

Adenosine A3 receptor = molecular target: T4, Adenosine A3 receptor (Homo sapiens, UniProt P0DMS8); test: FLIPR intracellular Ca2+ functional assay, recombinant CHO cells (A3/Gα6qi4myr); assay type: cell-based; conditions: read-out: EC50 values (agonist activity at adenosine receptors) A3
T4 construct: expressed in transfected cells; host or cells: CHO (Chinese hamster ovary) cells, stably double-transfected
T4 sequence (P0DMS8 1-318): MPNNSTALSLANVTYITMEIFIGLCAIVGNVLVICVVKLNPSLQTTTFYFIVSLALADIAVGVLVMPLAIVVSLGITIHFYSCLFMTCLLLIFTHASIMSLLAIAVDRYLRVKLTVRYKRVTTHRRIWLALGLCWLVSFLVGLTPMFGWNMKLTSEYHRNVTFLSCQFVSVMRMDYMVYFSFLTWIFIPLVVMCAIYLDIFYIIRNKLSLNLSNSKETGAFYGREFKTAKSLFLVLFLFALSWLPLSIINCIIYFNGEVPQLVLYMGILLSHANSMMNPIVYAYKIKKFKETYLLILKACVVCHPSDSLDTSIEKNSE
Procedure: as §1, §2, §3

[1] = test system: isolated guinea pig atrium; test: Effect on the isolated guinea pig atrium (contractile force, heart rate); conditions: for Contractile force: at 30 μM; for Heart rate: at 1–100 μM
Procedure: D. Effect on the Isolated Guinea Pig Atrium:
Guinea pigs of either sex were killed by a blow on the back of the neck and exsanguinated.
Their heart was taken out and the atria removed. The preparation (atrium) was immediately transferred to Ringer solution (JT 431) which was at a temperature of 32° C. and was bubbled with a mixture of 95% O2 and 5% CO2. The composition of the solution in […] was: NaCl 9.0; KCl 0.42 CaCl2 0.24; NaHCO3 0.2; glucose 1.0. The atrium beats spontaneously with an initial tension of 500 mg. The contractile force and the heart rate was recorded with a computer program and automatically calculated (B-mon and A-mon PC programs. Fa. Jäckel. Hanau. GERMANY). After equilibration, the test compound was added to a final bath concentration. N was 4-6 per concentration.

isolated rat adipocytes = test: Antilipolytic effect in isolated rat adipocytes; assay type: cell-based; conditions: Adipocyte, adenosine deaminase-induced lipolysis (glycerol and free fatty acid release)
Procedure: E. Antilipolytic Effect in Isolated Rat Adipocytes:
For the preparation of isolated rat adipocytes, epididymal fat pads were obtained from male Sprague-Dawley rats (150-180 g) killed by decapitation. The main fat pad blood vessel was removed with forceps and the pads were cut into small pieces. Digestion was carried out at 37° C. in a shaking water bath by treating 1 g of sliced pad for 20 min with 3 ml of 1 mg/ml collagenase (type I, CLS, Worthington) in 1% BSA, fraction V, in KRH (Krebs-Ringer solution buffered with 25 mM HEPES/KOH, pH 7.4, containing 2.5 mM CaCl2, 2 mM glucose, 1 mM sodium pyruvate, 0.5 units/ml adenosin deaminase and 200 nM phenylisopropyl adenosine). The adipocytes were filtered through nylon mesh of sufficient pore size that no pressure other than gentle teasing with a plastic spatula was necessary for the cells to pass through. After three cycles of centrifugation (500 g, 1 min), aspiration of the infranatant. and resuspension in KRH containing 1% BSA, the cells were suspended in KRH containing 4% defatted BSA. Small aliquots of the final suspension were aspirated into capillary hematocrit tubes and centrifuged for 1 min in a Microhematocrit centrifuge in order to determine what fraction of the suspension consisted of fat cells. Results expressed as activities per unit volume of packed adipocytes (corresponding to equivalent numbers of cells) are based on this centrifugation procedure. Lipolysis was initiated by addition of a 100 μl aliquot of the adipocyte suspension to 700 μl of incubation medium [prewarmed to 37° C. and consisting of KRH, 4% defatted BSA and 1 U/ml adenosine deaminase (type I, Sigma)], with or without addition of 8 μl of a solution of the appropriate test substance in 100% DMSO (at a concentration corresponding to 100 times its concentration in the final mixture). […] Incubations were performed in 5 ml polypropylene vials agitated in a shaking water bath (140 cycles/min, amplitude 4.5 cm) at 37° C. for 20, 40, and 60 min. The incubation was terminated by addition of 200 μl of 50 mM EDTA buffered to pH 7.4 with Tris. For the glycerol determination, the whole mixture was mixed rapidly and homogenized with a ground glass pestle in a 1 ml ground glass homogenizing tube (10 pulses). The homogenate was transferred immediately to a 1.5 ml Eppendorf cup precooled to 4° C., after which the extracts were maintained at 4° C. The homogenate was then centrifuged (10,000 g, 15 min) and the infranatant below the fat cake removed with a glass Pasteur pipette. taking care not to aspirate the membrane pellet. and transferred to another Eppendorf cup. 300 μl aliquots of the infranatant were added to 300 μl volumes of 10% (w/v) HClO4. The precipitate was in each case removed by centrifugation (10,000 g, 2 min) and the supernatant neutralized with 20% (w/v) KOH, followed by addition of 50 μl of 1 M Tris/HCl, pH 7.4, A 50 μl sample was then incubated (5 min, 37° C.) with 1 ml of 0.1 M HEPES/KOH, pH 7.5, containing 2 mM ATP, 0.5 mM 4-aminoantipyrine, 1 mM EDTA, 0.5 U glycerol kinase, 4 U glycerol-3-phosphate oxidase, 2 U peroxidase, 2.7 mM p-chlorophenol, 0.04% Triton X-100 and 2 mM MgSO4.7H2O, and the glycerol content determined from the absorbance at 505 nm. For the determination of free fatty acids, 300 μl aliquots of the incubation mixture were added to 3 ml of chloroform/heptane (1:1 v/v) containing 2% (v/v) methanol. and the liberated free fatty acids determined with copper reagent and bathocuproine. The inhibitory activities of the cyclipostins were calculated from the combined results (glycerol and free fatty acid release) by plotting the log of the dose against the percent response (with the adenosine deaminase-induced lipolysis set at 100%). Data in the linear portion of the log (dose)-percent response curves were analyzed using parallel-line bioassay techniques.

T2 sequence (P29274 whole entry): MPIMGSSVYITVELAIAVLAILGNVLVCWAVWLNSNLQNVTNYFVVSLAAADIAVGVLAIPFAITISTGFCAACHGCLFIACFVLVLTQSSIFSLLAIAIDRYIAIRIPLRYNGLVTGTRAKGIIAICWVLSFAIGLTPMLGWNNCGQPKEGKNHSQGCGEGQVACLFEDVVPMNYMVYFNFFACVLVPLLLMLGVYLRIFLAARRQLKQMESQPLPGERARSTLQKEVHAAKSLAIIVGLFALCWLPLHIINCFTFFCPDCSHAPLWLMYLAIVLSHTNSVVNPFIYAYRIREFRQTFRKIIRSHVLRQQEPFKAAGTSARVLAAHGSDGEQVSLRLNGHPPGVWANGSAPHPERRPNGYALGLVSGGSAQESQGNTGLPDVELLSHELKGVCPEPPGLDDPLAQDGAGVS

EC50 (Adenosine A1 receptor)	EC50 values (agonist activity at adenosine receptors) A2A (Adenosine A2a receptor)	EC50 (Adenosine A2b receptor; read-out: EC50 values (agonist activity at adenosine receptors) A2B)	EC50 (Adenosine A3 receptor)	IC50 (isolated rat adipocytes)	melting point	EC50 values (agonist activity at adenosine receptors) A2B (Adenosine A2b receptor)	SMILES	Contractile force [1]	Heart rate [1]
1.25 µM	Inactive	> 30 µM	> 50 µM	0.005 µM	178 °C	–	O[C@@H]1[C@@H](CF)C[C@@H](n2cnc3c(N[C@H]4CCN(c5ccc(C(F)(F)F)cc5)C4)ncnc32)[C@@H]1O [Example 7, (1R,2S, 3R, 5S)-3-{6-[1-(4-trifluoromethyl-phenyl-1-yl) -pyrrolidin-3(S)-ylamino]-purin-9-yl}-5-fluoromethyl-cyclopentane-1,2-diol]	−1% at 30 μM	no effect at 1–100 μM
15.4 µM	Inactive	–	> 50 µM	0.1 µM	153 °C	inactive	O[C@@H]1[C@@H](COC(F)(F)F)C[C@@H](n2cnc3c(N[C@H]4CCN(c5ccc(C(F)(F)F)cc5)C4)ncnc32)[C@@H]1O [Example 10, (1R,2S,3R,5R)-3-{6-[1-(4-trifluoromethyl-phenyl-1-yl)-pyrrolidin-3(S)-ylamino]-purin-9-yl}-5-trifluoromethoxymethyl-cyclopentane-1,2-diol]	+3% at 30 μM	no effect at 1–100 μM
